Assay results reported in article PMC12281424, “A Rac-specific competitive inhibitor of guanine nucleotide binding reduces metastasis in triple-negative breast cancer” (Cell Reports Medicine, 2025).

Experiments:
[1] = target: MYLK2(h) (Homo sapiens, UniProt Q9H1R3); experiment: Kinase Profiler; format: biochemical
Method: (§1) The kinase profiler was performed by the company Eurofins (Discovery, Panlab and Cerep).

[2] = target: VRK1(h) (Homo sapiens, UniProt Q99986); experiment: Kinase Profiler; format: biochemical
Method: as §1

[3] = target: BMPR2(h) (Homo sapiens, UniProt Q13873); experiment: Kinase Profiler; format: biochemical
Method: (§2) Blood cell counts, kinase profiler, safety screen, bacterial cytotoxicity, Ames, micronucleus assays were performed by the company Eurofins (France). The kinase profiler was performed by the company Eurofins (Discovery, Panlab and Cerep).

[4] = test system: other breast cancer cell lines and other types of cancer cell lines; experiment: Focus formation (clonogenic) assay; format: cell-based; details: 10 μM
Method: Figure 5 A41 decreases growth and invasiveness of TNBC cells in vitro (A) Representative images of RAC-GTP levels (red) in MDA-MB-468 Luc cells in the absence (CTL) and presence of EHT1864, NSC23766, or A41 (1 h at 10 μM) (left). Luciferase (Luc, green) was used to detect the cells. RAC-GTP mean fluorescence intensity was quantified inside the cell area (right) (n = 31–37 cells from 3 independent experiments; ∗p < 0.05, ∗∗∗p < 0.001) (scale bars: 10 μm). […] (C) Quantification of colony number of indicated cancer cell lines in the presence of A41 (10 μM) expressed as the percentage of control in the absence of A41. Results shown are representative of N > 3 independent experiments. (D) Immunoblot analysis and corresponding quantification of AKT and P44/42 expression and phosphorylation (pAKT, p44/42) in MDA-MB-468 Luc cells in the absence (−) and presence of NSC23766 or A41 (1 h at 10^−5 M). Results shown are representative of 3 independent experiments. ∗∗p < 0.01 vs. untreated cells, ^###p < 0.001 vs. NSC23766-treated cells. (E) 3D invasion assay of MDA-MB-468 Luc and cancer-associated fibroblasts (CAFs) and corresponding quantification (scale bars: 200 μm). […]
1000 cells/well from the indicated cancer cell lines were seeded in 6-wells plates and allowed to grow 2 days before treatments. […] The area occupied by the cells was then quantified with ImageJ software. […]

[5] = target: Adenosine A1 (Homo sapiens, UniProt P30542); experiment: Safety screen; format: binding
Method: as §1

[6] = test system: NIH/3T3 cell migration; experiment: 1D cell migration (CYTOO plates); format: cell-based; details: 10^-5 M
Method: NIH3T3cells (1000/well) were seeded in a 96 well plate with […] fibronectin stripes (CytooPlates Motility, CYTOO) in medium with 1% SVF and allowed to spread for 4 h before capturing time-lapse images for 24 h (image/10 min) on a Widefield Leica DMI 6000B drove with Metamorph software. Cells speed was measured with ImageJ software.
Supplementary Fig. 3: Example of one pharmacophore model used for virtual screening. (a) The pharmacophore model shown was created based on RAC1 (grey) and NSC23766 (orange) interaction. The pharmacophore model is formed by two hydrogenbond acceptor(HBA)features,one orientedtowardsthe hydroxylgroup of Ser71 (S71) and the other towards the amine group of Gln74 (Q74), one hydrogen bond donor (HBD) feature pointed to the oxygenatom of Leu70 (L70) and two hydrophobic features (HY) located on certain carbon atoms of NSC23766 and facing residues Val36 (V36), Ala59 (A59), Tyr64 (Y64) and Leu67 (L67). The spheres correspond to locationconstraint. […] (b) Impact of different screening molecules (10^-5 M) on NIH/3T3 cell adhesion (xCELLingence Real-time cellanalysis, Agilent), migration (CYTOO Mobility plates) and proliferation (xCELLingence Real-time cell analysis, Agilent) .The level of RAC activation is determinedby the detection of RAC-GTP (pull-down assay) in NIH/3T3 cell treated with EGF (10 ng/mL) and the differentmolecules and normalize to the level of RAC activity measuredin the presenceof the reference RAC inhibitor EHT1864.
Supplementary Fig. 4: A41 inhibits RAC-dependent cell functions. (a) Representative records of single NIH/3T3 cell migration on micropatterned fibronectin lines (CYTOO Mobility plates) in the absence (Control)and presenceA41 at 10^-5 M (left panel) and corresponding quantification of migration speed (right panel) (scale bar: 20µm). […] (b) Typical curves showing the cell index representing the adhesion of NIH/3T3 fibroblast (xCELLingence Real-time cell analysis, Agilent) under control condition (Control) and pre-treated with 10 µM A41 or NSC23766 (left panel) and corresponding quantification of cell adhesion speed (right panel). […]

[7] = target: Met(h) (Homo sapiens, UniProt P08581); experiment: Kinase Profiler; format: biochemical
Method: as §1

[8] = target: Tie2(Y897S)(h) (Homo sapiens, UniProt Q02763, Y897S); experiment: Kinase Profiler; format: biochemical
Method: as §1

[9] = target: BTK(h) (Homo sapiens, UniProt Q06187); experiment: Kinase Profiler; format: biochemical
Method: as §2

[10] = target: EphB2(h) (Homo sapiens, UniProt P29323); experiment: Kinase Profiler; format: biochemical
EphB2(h), sequence (P29323 19-1055): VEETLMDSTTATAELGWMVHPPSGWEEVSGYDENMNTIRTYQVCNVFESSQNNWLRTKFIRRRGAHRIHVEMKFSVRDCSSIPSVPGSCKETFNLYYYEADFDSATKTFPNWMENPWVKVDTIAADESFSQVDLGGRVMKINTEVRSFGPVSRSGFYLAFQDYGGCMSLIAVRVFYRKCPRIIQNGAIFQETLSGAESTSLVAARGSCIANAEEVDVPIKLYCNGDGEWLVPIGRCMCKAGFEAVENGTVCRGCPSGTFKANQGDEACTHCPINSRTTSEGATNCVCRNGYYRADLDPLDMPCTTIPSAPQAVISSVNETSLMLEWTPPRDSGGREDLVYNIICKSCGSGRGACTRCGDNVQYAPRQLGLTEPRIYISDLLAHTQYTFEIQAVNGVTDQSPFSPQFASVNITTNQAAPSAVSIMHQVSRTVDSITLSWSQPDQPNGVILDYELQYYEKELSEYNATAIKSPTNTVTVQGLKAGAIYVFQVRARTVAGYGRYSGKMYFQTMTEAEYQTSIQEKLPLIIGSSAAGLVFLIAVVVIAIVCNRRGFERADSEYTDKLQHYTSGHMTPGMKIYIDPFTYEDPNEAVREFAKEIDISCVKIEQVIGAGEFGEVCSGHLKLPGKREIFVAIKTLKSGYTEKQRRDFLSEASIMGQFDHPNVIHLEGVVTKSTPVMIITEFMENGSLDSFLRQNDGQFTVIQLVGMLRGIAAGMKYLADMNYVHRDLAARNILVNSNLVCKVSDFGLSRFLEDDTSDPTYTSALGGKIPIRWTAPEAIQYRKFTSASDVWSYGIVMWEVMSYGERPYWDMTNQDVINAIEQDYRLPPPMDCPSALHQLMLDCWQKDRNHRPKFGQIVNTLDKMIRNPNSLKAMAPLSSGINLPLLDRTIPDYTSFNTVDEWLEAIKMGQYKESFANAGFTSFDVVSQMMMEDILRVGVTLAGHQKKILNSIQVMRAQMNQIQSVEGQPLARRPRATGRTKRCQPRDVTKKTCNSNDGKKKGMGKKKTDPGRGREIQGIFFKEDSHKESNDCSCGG
Method: as §2

MYLK2(h), sequence (Q9H1R3 whole entry): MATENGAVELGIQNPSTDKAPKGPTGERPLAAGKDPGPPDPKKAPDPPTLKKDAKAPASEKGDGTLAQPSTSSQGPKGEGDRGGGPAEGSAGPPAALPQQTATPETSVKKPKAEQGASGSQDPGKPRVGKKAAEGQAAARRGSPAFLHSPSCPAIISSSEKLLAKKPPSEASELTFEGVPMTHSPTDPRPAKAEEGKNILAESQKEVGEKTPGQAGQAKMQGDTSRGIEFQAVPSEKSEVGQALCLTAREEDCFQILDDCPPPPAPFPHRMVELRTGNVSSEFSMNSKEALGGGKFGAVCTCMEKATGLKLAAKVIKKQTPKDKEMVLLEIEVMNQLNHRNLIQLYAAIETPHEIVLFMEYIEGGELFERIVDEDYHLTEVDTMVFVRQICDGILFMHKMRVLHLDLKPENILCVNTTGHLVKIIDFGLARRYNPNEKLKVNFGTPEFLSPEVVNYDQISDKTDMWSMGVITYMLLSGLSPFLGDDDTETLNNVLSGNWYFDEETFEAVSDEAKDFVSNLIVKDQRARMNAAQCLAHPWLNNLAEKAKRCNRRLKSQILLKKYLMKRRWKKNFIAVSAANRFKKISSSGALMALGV
Adenosine A1, sequence (P30542 whole entry): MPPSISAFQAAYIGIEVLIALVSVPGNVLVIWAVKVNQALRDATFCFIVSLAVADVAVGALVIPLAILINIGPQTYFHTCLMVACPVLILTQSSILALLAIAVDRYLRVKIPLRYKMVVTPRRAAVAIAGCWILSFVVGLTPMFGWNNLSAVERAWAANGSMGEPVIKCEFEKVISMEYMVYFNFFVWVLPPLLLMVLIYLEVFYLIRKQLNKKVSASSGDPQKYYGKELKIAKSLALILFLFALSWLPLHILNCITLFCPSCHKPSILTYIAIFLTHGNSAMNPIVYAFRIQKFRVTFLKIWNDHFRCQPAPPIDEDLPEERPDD
Met(h), sequence (P08581 25-1390): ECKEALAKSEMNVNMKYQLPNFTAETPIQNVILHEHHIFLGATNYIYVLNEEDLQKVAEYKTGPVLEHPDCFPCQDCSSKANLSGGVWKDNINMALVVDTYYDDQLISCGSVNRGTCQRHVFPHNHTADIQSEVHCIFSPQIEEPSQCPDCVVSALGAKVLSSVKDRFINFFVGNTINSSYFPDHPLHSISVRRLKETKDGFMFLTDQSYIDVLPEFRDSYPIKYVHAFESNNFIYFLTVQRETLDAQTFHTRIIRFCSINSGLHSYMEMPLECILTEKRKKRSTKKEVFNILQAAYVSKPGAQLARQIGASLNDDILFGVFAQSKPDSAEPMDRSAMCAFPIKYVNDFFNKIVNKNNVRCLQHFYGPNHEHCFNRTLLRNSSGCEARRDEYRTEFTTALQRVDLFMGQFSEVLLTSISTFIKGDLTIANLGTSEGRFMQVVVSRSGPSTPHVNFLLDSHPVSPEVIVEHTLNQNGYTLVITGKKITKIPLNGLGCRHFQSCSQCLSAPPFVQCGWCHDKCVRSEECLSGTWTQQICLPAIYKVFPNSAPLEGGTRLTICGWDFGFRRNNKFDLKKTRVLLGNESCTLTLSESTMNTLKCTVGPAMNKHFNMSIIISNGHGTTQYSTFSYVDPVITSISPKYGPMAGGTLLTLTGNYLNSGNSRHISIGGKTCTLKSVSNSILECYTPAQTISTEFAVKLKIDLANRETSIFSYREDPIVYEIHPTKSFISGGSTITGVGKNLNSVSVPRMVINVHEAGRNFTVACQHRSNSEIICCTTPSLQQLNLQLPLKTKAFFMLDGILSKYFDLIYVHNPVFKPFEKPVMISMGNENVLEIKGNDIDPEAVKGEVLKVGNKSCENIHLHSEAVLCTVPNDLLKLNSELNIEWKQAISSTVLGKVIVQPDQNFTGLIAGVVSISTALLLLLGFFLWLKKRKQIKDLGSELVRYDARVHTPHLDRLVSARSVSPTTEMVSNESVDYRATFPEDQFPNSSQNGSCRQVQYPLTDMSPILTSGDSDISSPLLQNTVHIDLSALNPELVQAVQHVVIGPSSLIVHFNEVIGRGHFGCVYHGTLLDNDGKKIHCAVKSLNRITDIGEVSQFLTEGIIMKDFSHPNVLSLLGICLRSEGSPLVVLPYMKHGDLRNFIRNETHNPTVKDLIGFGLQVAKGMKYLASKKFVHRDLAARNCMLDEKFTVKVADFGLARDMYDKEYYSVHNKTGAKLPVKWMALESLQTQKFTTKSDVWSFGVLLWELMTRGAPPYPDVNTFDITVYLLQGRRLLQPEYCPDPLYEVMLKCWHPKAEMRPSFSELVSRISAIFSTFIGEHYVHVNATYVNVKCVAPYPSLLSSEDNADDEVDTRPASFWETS
BMPR2(h), sequence (Q13873 27-1038): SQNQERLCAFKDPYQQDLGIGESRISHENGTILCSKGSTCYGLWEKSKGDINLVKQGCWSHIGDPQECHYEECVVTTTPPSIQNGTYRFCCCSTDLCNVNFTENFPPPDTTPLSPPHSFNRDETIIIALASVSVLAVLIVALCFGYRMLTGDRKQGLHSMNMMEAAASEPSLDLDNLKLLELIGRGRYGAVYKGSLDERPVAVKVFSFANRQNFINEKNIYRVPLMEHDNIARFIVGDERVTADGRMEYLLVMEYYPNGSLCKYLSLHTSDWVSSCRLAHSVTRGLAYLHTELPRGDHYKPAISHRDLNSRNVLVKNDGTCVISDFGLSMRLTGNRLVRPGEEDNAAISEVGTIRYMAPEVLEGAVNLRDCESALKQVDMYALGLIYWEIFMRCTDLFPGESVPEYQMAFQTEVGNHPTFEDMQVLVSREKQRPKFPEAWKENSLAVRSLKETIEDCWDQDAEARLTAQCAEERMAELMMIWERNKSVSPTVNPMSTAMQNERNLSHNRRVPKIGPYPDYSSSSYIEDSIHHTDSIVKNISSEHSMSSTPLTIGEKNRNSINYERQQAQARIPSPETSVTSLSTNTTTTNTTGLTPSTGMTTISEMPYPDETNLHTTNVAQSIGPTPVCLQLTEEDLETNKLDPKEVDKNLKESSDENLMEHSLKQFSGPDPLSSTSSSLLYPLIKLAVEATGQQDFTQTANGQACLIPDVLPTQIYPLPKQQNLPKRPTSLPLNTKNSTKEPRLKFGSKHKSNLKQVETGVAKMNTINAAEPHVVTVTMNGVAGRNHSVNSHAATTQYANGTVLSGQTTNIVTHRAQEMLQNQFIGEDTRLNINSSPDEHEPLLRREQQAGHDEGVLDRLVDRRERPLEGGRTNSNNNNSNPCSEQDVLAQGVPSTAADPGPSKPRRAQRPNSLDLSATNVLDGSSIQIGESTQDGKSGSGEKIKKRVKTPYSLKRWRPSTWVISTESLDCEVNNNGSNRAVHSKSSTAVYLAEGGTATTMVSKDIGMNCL
BTK(h), sequence (Q06187 whole entry): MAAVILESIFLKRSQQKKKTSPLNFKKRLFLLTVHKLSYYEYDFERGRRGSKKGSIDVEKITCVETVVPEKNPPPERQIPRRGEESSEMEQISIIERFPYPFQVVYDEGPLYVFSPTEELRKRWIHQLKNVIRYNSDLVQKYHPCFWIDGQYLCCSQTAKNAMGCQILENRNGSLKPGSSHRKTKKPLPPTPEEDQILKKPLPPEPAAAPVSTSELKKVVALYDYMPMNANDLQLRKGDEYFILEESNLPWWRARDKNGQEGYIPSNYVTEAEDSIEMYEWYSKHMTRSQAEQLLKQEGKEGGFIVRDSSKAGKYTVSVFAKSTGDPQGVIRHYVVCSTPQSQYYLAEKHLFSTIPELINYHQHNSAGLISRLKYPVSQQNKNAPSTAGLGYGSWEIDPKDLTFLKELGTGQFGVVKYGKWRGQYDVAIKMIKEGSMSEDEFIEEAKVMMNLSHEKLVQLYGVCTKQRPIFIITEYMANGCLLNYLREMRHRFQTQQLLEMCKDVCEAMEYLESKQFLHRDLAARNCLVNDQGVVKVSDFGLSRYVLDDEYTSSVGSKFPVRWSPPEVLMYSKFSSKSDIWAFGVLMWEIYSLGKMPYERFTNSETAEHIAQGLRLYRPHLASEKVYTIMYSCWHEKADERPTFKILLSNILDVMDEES

COc1ccc(OC)c(NS(=O)(=O)c2ccc(NC(=O)CCSc3ccc(C)cc3)cc2)c1 [Compound A41]
Activity(%) [1]: 103% | Activity(%) [2]: 103% | Activity(%) [3]: 100% | colony formation [4]: Inhibitory effect | % inh. [5]: 2% | cell migration [6]: efficiently inhibited both functions | Activity(%) [7]: 88% | Activity(%) [8]: 109% | Activity(%) [9]: 117% | Activity(%) [10]: 97%
